Assay results reported in PubChem BioAssay AID256 (DTP/NCI, 2004).
Where “and” joins values, the source holds several entries; their conditions need not be identical. Equal values may be shown once. Toxic doses and inconclusive results are not listed.

Test system: CD2F1 mice, L1210 leukemia ip, survival T/C
Assay: NCI In Vivo Anticancer Drug Screen. Data for tumor model L1210 Leukemia (intraperitoneal) in CD2F1 (CDF1) mice
Conditions: higher = longer survival
In short: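 Antitumor effect is scored in animals hosting a serially transplanted tumor. Values compare compound-dosed animals against vehicle-only controls as a simple quotient.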

[1] = endpoint: mean survival time, dose: 100.0 mg/kg/injection, schedule: Q01DX001 (ip), vehicle: saline with Tween-80
[2] = endpoint: mean survival time, dose: 200.0 mg/kg/injection, schedule: Q01DX001 (ip), vehicle: saline with Tween-80
[3] = endpoint: mean survival time, dose: 400.0 mg/kg/injection, schedule: Q01DX001 (ip), vehicle: saline with Tween-80
[4] = endpoint: mean survival time, dose: 100.0 mg/kg/injection, schedule: Q04DX003 (ip), vehicle: saline with Tween-80
[5] = endpoint: mean survival time, dose: 200.0 mg/kg/injection, schedule: Q04DX003 (ip), vehicle: saline with Tween-80
[6] = endpoint: mean survival time, dose: 400.0 mg/kg/injection, schedule: Q04DX003 (ip), vehicle: saline with Tween-80
[7] = endpoint: mean survival time, dose: 100.0 mg/kg/injection, schedule: Q04DX003 (ip), vehicle: saline
[8] = endpoint: mean survival time, dose: 100.0 mg/kg/injection, schedule: Q04DX002 (ip), vehicle: saline with Tween-80
[9] = endpoint: mean survival time, dose: 100.0 mg/kg/injection, schedule: Q01DX009 (ip), vehicle: saline with Tween-80
[10] = endpoint: mean survival time, dose: 200.0 mg/kg/injection, schedule: Q01DX009 (ip), vehicle: saline with Tween-80
[11] = endpoint: mean survival time, dose: 400.0 mg/kg/injection, schedule: Q01DX009 (ip), vehicle: saline with Tween-80

For `O=C(NC1CCCC2CCCCC21)c1ccccc1` (configuration not stated), the T/C [1] was 90 % of control, the T/C [2] was 88 % of control and the T/C [3] was 90 % of control.
For `CCOC(=O)c1c(-c2ccccc2)[nH]c2ccccc2c1=O`, the T/C [4] was 96 % of control, the T/C [5] was 98 % of control and the T/C [6] was 95 % of control.
With `CCCCCCCCC(O)CCCCCCCCC(=O)O` (configuration not stated) the T/C [1] was 93 % of control, the T/C [2] was 87 % of control and the T/C [3] was 87 % of control.
For `CC(NC(=O)OCc1ccccc1)C(=O)NC(CC(=O)O)C(=O)O` (configuration not stated), the T/C [7] was 92 % of control.
In the case of `CCCCCCCCCCNC(=O)C[n+]1cccc(C(=O)N(C)C)c1`, the T/C (endpoint: mean survival time, dose: 12.5 mg/kg/injection, schedule: Q01DX009 (ip), vehicle: saline sonified) is reported as 100 % of control, the T/C (endpoint: mean survival time, dose: 12.5 mg/kg/injection, schedule: Q04DX003 (ip), vehicle: saline) is reported as 95 % of control and the T/C (endpoint: mean survival time, dose: 25.0 mg/kg/injection, schedule: Q01DX009 (ip), vehicle: saline sonified) is reported as 97 % of control. The T/C (endpoint: mean survival time, dose: 25.0 mg/kg/injection, schedule: Q04DX003 (ip), vehicle: saline) was 97 % of control, the T/C (endpoint: mean survival time, dose: 50.0 mg/kg/injection, schedule: Q01DX009 (ip), vehicle: saline sonified) was 102 % of control and the T/C (endpoint: mean survival time, dose: 50.0 mg/kg/injection, schedule: Q04DX003 (ip), vehicle: saline) was 101 % of control.
`OC(Cc1[nH]c2ccccc2c1C(O)(C(F)(F)F)C(F)(F)F)(C(F)(F)F)C(F)(F)F` was tested, and the T/C (endpoint: mean survival time, dose: 100.0 mg/kg/injection, schedule: Q01DX009 (ip), vehicle: other) was 101 % of control, the T/C (endpoint: mean survival time, dose: 200.0 mg/kg/injection, schedule: Q01DX009 (ip), vehicle: other) was 110 % of control and the T/C (endpoint: mean survival time, dose: 400.0 mg/kg/injection, schedule: Q01DX009 (ip), vehicle: other) was 94 % of control.
For `CC1CCc2ccccc2N1CCN` (configuration not stated), the T/C (endpoint: mean survival time, dose: 100.0 mg/kg/injection, schedule: Q04DX003 (ip), vehicle: Klucel (hydroxypropylcellulose) (HPC)) was 95 % of control.
In the case of `O=[N+]([O-])c1cccc2c1cc([N+](=O)[O-])c1cccnc12`, the T/C (endpoint: mean survival time, dose: 25.0 mg/kg/injection, schedule: Q04DX002 (ip), vehicle: saline with Tween-80) is reported as 98 % of control, the T/C (endpoint: mean survival time, dose: 50.0 mg/kg/injection, schedule: Q04DX002 (ip), vehicle: saline with Tween-80) is reported as 98 % of control and the T/C [8] is reported as 98 % of control.
For `COc1ccccc1/C=C\C(=O)C1COCN1` (configuration not stated), the T/C (endpoint: mean survival time, dose: 37.5 mg/kg/injection, schedule: Q01DX009 (ip), vehicle: saline) was 98 % of control, the T/C (endpoint: mean survival time, dose: 75.0 mg/kg/injection, schedule: Q01DX009 (ip), vehicle: saline) was 98 % of control and the T/C (endpoint: mean survival time, dose: 150.0 mg/kg/injection, schedule: Q01DX009 (ip), vehicle: saline) was 98 % of control.
In the case of `C[n+]1ccccc1NC(=O)c1ccccc1`, the T/C [4] is reported as 98 % of control, the T/C [5] is reported as 95 % of control and the T/C [6] is reported as 88 % of control.
In the case of `O=C(Nc1ccc(Cl)c(Cl)c1)Nc1c(Oc2ccc(Cl)c(Cl)c2)ccc(Cl)c1S(=O)(=O)O`, the T/C (endpoint: mean survival time, dose: 3.12 mg/kg/injection, schedule: Q01DX009 (ip), vehicle: saline with Tween-80) is reported as 109 % of control, the T/C (endpoint: mean survival time, dose: 6.25 mg/kg/injection, schedule: Q01DX009 (ip), vehicle: saline with Tween-80) is reported as 109 % of control and the T/C (endpoint: mean survival time, dose: 12.5 mg/kg/injection, schedule: Q01DX009 (ip), vehicle: saline with Tween-80) is reported as 110 % of control. For the same compound, the T/C (endpoint: mean survival time, dose: 25.0 mg/kg/injection, schedule: Q01DX009 (ip), vehicle: saline with Tween-80) was 113 % of control, the T/C (endpoint: mean survival time, dose: 50.0 mg/kg/injection, schedule: Q01DX009 (ip), vehicle: saline with Tween-80) was 104 % of control and the T/C [9] was 113 % of control. The T/C [4] was 108 % of control and the T/C [5] was 101 % of control.
In the case of `C=CC1=CC(=O)OC1=O`, the T/C (endpoint: mean survival time, dose: 1.25 mg/kg/injection, schedule: Q01DX001 (ip), vehicle: saline) is reported as 91 % of control, the T/C (endpoint: mean survival time, dose: 2.5 mg/kg/injection, schedule: Q01DX001 (ip), vehicle: saline) is reported as 88 % of control and the T/C (endpoint: mean survival time, dose: 5.0 mg/kg/injection, schedule: Q01DX001 (ip), vehicle: saline) is reported as 89 % of control. For the same compound, the T/C (endpoint: mean survival time, dose: 10.0 mg/kg/injection, schedule: Q01DX001 (ip), vehicle: saline) was 89 % of control.
With `CCC1c2cc(O)c(OC)cc2CCN1C` (configuration not stated) the T/C (endpoint: mean survival time, dose: 75.0 mg/kg/injection, schedule: Q01DX001 (ip), vehicle: saline) was 106 % of control.
`COc1ccc(C(=O)/C=N/O)cc1` was tested, and the T/C (endpoint: mean survival time, dose: 25.0 mg/kg/injection, schedule: Q04DX003 (ip), vehicle: saline with Tween-80) was 100 % of control, the T/C (endpoint: mean survival time, dose: 50.0 mg/kg/injection, schedule: Q04DX003 (ip), vehicle: saline with Tween-80) was 100 % of control and the T/C [4] was 95 % of control and 98 % of control.
In the case of `O=C(O)[C@H](Cc1ccccc1)N1C(=O)c2ccccc2C1=O`, the T/C (endpoint: median survival time, dose: 75.0 mg/kg/injection, schedule: Q01DX005 (ip), vehicle: DMSO) is reported as 96 % of control, the T/C (endpoint: median survival time, dose: 150.0 mg/kg/injection, schedule: Q01DX005 (ip), vehicle: DMSO) is reported as 93 % of control and the T/C (endpoint: median survival time, dose: 300.0 mg/kg/injection, schedule: Q01DX005 (ip), vehicle: DMSO) is reported as 96 % of control. The T/C (endpoint: median survival time, dose: 600.0 mg/kg/injection, schedule: Q01DX005 (ip), vehicle: DMSO) was 98 % of control.
With `CN1CC(NC(=O)N(CCCl)N=O)CC2c3cccc4c3c(cn4N=O)CC21` (configuration not stated) the T/C (endpoint: mean survival time, dose: 12.5 mg/kg/injection, schedule: Q01DX001 (ip), vehicle: other) was 105 % of control, the T/C (endpoint: mean survival time, dose: 25.0 mg/kg/injection, schedule: Q01DX001 (ip), vehicle: other) was 117 % of control and the T/C (endpoint: mean survival time, dose: 50.0 mg/kg/injection, schedule: Q01DX001 (ip), vehicle: other) was 121 % of control. The T/C (endpoint: mean survival time, dose: 200.0 mg/kg/injection, schedule: Q01DX001 (ip), vehicle: other) was 164 % of control and the T/C (endpoint: mean survival time, dose: 400.0 mg/kg/injection, schedule: Q01DX001 (ip), vehicle: other) was 289 % of control.
In the case of `O=C(Nc1cccc(Cl)c1)C(c1ccccc1)c1ccccc1`, the T/C [8] is reported as 95 % of control, the T/C (endpoint: mean survival time, dose: 200.0 mg/kg/injection, schedule: Q04DX002 (ip), vehicle: saline with Tween-80) is reported as 87 % of control and the T/C (endpoint: mean survival time, dose: 400.0 mg/kg/injection, schedule: Q04DX002 (ip), vehicle: saline with Tween-80) is reported as 91 % of control.
For `C/C(=N\O)C1(C)CC=CCC1CO` (configuration not stated), the T/C (endpoint: mean survival time, dose: 100.0 mg/kg/injection, schedule: Q01DX009 (ip), vehicle: saline sonified) was 102 % of control, the T/C (endpoint: mean survival time, dose: 200.0 mg/kg/injection, schedule: Q01DX009 (ip), vehicle: saline sonified) was 96 % of control and the T/C (endpoint: mean survival time, dose: 400.0 mg/kg/injection, schedule: Q01DX009 (ip), vehicle: saline sonified) was 100 % of control.
`COC(=O)/C=C/c1ccc([N+](=O)[O-])cc1` was tested, and the T/C [9] was 100 % of control, the T/C [10] was 100 % of control and the T/C [11] was 105 % of control.
`O=C(O)C1C=CCC(C(=O)O)C1` (configuration not stated) was tested, and the T/C (endpoint: mean survival time, dose: 50.0 mg/kg/injection, schedule: Q01DX009 (ip), vehicle: saline) was 101 % of control, the T/C (endpoint: mean survival time, dose: 100.0 mg/kg/injection, schedule: Q01DX009 (ip), vehicle: saline) was 97 % of control and the T/C (endpoint: mean survival time, dose: 200.0 mg/kg/injection, schedule: Q01DX009 (ip), vehicle: saline) was 101 % of control.
With `CC12C(=O)C=CCC1=CCC1C2CCC2(O)C(=O)OC3(C)C4CC5(C)C(COC16OC23C5C6=O)C(=O)O4` (configuration not stated) the T/C (endpoint: median survival time, dose: 25.0 mg/kg/injection, schedule: Q01DX009 (ip), vehicle: Klucel (hydroxypropylcellulose) (HPC)) was 102 % of control, the T/C (endpoint: median survival time, dose: 50.0 mg/kg/injection, schedule: Q01DX009 (ip), vehicle: Klucel (hydroxypropylcellulose) (HPC)) was 96 % of control and the T/C (endpoint: median survival time, dose: 100.0 mg/kg/injection, schedule: Q01DX009 (ip), vehicle: Klucel (hydroxypropylcellulose) (HPC)) was 100 % of control. For the same compound, the T/C (endpoint: median survival time, dose: 200.0 mg/kg/injection, schedule: Q01DX009 (ip), vehicle: Klucel (hydroxypropylcellulose) (HPC)) was 108 % of control.
For `C/C(=N\O)c1ccc2ccc3ccccc3c2c1`, the T/C (endpoint: mean survival time, dose: 100.0 mg/kg/injection, schedule: Q01DX001 (ip), vehicle: saline) was 100 % of control, the T/C [7] was 102 % of control and the T/C (endpoint: mean survival time, dose: 200.0 mg/kg/injection, schedule: Q01DX001 (ip), vehicle: saline) was 95 % of control. For the same compound, the T/C (endpoint: mean survival time, dose: 200.0 mg/kg/injection, schedule: Q04DX003 (ip), vehicle: saline) was 100 % of control, the T/C (endpoint: mean survival time, dose: 400.0 mg/kg/injection, schedule: Q01DX001 (ip), vehicle: saline) was 100 % of control and the T/C (endpoint: mean survival time, dose: 400.0 mg/kg/injection, schedule: Q04DX003 (ip), vehicle: saline) was 97 % of control.
`CC(=O)N1C2=CCCC3CCCCC23c2ccccc21` (configuration not stated) was tested, and the T/C [9] was 103 % of control, the T/C [4] was 96 % of control and the T/C [10] was 101 % of control. For the same compound, the T/C [5] was 92 % of control, the T/C [11] was 98 % of control and the T/C [6] was 101 % of control.
